This note sets out measurements from patent publication US10975048B2, “Composition of 1,3,4-selenadiazole containing compounds with pharmacological activity” (HANGZHOU JENNIFER BIOTECH CO., LTD, priority 2015, dated 2021).

Where two headings read alike, the source gives them in different places.

One series concerns the target GDH (Homo sapiens, UniProt P00367). Put plainly: GDH inhibition IC50. The class given is biochemical.
For the next series, the target named is T1, KGA (Homo sapiens, UniProt O94925).
T1 sequence (O94925 55-669): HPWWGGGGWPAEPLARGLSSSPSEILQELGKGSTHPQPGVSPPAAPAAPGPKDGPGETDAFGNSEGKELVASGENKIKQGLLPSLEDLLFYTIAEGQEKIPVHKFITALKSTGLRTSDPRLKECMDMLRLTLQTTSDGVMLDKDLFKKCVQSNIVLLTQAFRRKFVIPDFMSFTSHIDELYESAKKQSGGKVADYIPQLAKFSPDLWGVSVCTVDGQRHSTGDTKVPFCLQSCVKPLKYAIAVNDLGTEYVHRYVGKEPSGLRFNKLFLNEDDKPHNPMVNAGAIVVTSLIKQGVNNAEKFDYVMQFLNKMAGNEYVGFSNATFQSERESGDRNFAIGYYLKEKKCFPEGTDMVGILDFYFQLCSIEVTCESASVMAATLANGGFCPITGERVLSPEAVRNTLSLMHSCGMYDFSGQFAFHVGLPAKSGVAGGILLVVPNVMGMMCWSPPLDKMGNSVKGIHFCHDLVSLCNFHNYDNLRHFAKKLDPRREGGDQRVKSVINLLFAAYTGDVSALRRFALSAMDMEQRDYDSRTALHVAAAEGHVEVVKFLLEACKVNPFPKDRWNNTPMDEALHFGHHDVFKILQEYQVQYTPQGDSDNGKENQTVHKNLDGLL
In words: KGA inhibition IC50. In kind it is biochemical. The text has this:
(§1) The molecular structure of specific compounds is described as follows: […]

The test system of the next series is A 549 lung cancer cells. In words: Inhibition of A549 lung cancer cells. In kind it is cell-based. Particulars: for A549 Max-INH: maximal inhibition; for IC50: Homo sapiens.
Source text: as §1

Where [1] appears, read: A549 cells, read-out: A549 IC50.

Sequence of GDH (P00367 54-558): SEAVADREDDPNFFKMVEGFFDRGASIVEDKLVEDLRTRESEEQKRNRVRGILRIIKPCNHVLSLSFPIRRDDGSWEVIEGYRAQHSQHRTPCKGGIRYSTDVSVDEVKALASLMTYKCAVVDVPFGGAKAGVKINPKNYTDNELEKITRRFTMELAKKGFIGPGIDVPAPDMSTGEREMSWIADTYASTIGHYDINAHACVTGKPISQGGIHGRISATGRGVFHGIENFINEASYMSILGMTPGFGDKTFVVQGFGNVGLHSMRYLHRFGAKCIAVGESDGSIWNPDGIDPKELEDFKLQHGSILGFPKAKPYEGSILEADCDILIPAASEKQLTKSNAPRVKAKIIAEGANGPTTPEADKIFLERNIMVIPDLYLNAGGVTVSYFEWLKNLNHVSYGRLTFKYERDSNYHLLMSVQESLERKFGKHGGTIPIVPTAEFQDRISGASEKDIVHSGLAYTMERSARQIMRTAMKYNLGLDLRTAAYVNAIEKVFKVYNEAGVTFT

A word on the melting point: it is the temperature, or range, at which the solid turns liquid. `c1ccc(Nc2nnc(Cc3nnc(Nc4ccccc4)[se]3)[se]2)cc1` gave a melting point of 130 to 132 °C.

Turning to `c1ccc(Nc2nnc(CCc3nnc(Nc4ccccc4)[se]3)[se]2)cc1`, the melting point was in the range of 160 to 161 °C.

In the case of `c1ccc(Nc2nnc(CCCc3nnc(Nc4ccccc4)[se]3)[se]2)cc1`, the melting point was in the range of 198 to 201 °C.

In the case of `c1ccc(Nc2nnc(CCCCCc3nnc(Nc4ccccc4)[se]3)[se]2)cc1`, the melting point is 165 to 171 °C.

`ClCCc1nnc(Nc2ccccc2)[se]1`: the melting point lay in the range of 109 to 110 °C.

Turning to `ClCCc1nnc(NCc2ccccc2)[se]1`, the melting point lay within 109 to 110 °C.

Compound `ClCCc1nnc(NCCc2ccccc2)[se]1` yielded a melting point of 109 to 110 °C.

Take `N=C(N)NCc1nnc(Nc2ccccc2)[se]1`: the melting point was in the range of 109 to 110 °C.

Turning to `c1ccc(Nc2nnc(CCSCCc3nnc(Nc4ccccc4)[se]3)[se]2)cc1`, the melting point was 172 to 174 °C.

Usually IC50 stands for the concentration that gives 50% inhibition. With `Cn1cc(CC(=O)Nc2nnc(CCSCCc3nnc(N)[se]3)[se]2)c2ccccc21`, the results for the IC50 on GDH, at KGA and in the series with A 549 lung cancer cells (setting [1]) were greater than 10000 nM, 110 nM and 2050 nM, respectively. Further, in the series on A 549 lung cancer cells (A549 cells), the “A549 Max-INH” value is 84%.

In the case of `Cn1cc(CC(=O)Nc2nnc(CCSCCc3nnc(N)s3)s2)c2ccccc21`, the half-maximal inhibitory concentration (IC50) against GDH is greater than 10000 nM; at KGA (read-out: KGA IC50), 140 nM; in the series on A 549 lung cancer cells (setting [1]), 9700 nM. The “A549 Max-INH” value in the series with A 549 lung cancer cells (A549 cells) worked out at 55%.

Take `Cn1cc(CC(=O)Nc2nnc(CCSCCc3nnc(NC(=O)Cc4cn(C)c5ccccc45)[se]3)[se]2)c2ccccc21`: the IC50 against GDH is greater than 10000 nM; at KGA (read-out: KGA IC50), 27 nM; in the series on A 549 lung cancer cells (setting [1]), 160 nM. Besides, the “A549 Max-INH” value with A 549 lung cancer cells (A549 cells) was 90%.

For `Cn1cc(CC(=O)Nc2nnc(CCSCCc3nnc(NC(=O)Cc4cn(C)c5ccccc45)s3)s2)c2ccccc21`, the half-inhibitory concentration (IC50) against GDH is greater than 10000 nM; at KGA (read-out: KGA IC50), 280 nM; in the series on A 549 lung cancer cells (setting [1]), 820 nM. In the series with A 549 lung cancer cells (A549 cells), the “A549 Max-INH” value came to 80%.

As for `Cn1ccc(CC(=O)Nc2nnc(CCSCCc3nnc(N)[se]3)[se]2)c1`, the IC50 against GDH is greater than 10000 nM; on KGA it was 210 nM; in the series on A 549 lung cancer cells (setting [1]), greater than 10000 nM. Further, the “A549 Max-INH” value with A 549 lung cancer cells (A549 cells) is on record as 40%.

Regarding `Cn1ccc(CC(=O)Nc2nnc(CCSCCc3nnc(N)s3)s2)c1`, the IC50 against GDH was greater than 10000 nM; on KGA (read-out: KGA IC50) it was 570 nM; in the series with A 549 lung cancer cells (setting [1]) it was greater than 10000 nM. Further, the “A549 Max-INH” value in the series with A 549 lung cancer cells (A549 cells) is 0%.

Regarding `Cn1ccc(CC(=O)Nc2nnc(CCSCCc3nnc(NC(=O)Cc4ccn(C)c4)[se]3)[se]2)c1`, the half-maximal inhibitory concentration (IC50) on GDH is greater than 10000 nM; on KGA (read-out: KGA IC50), 60 nM; in the series on A 549 lung cancer cells (setting [1]), 3100 nM. In addition, the “A549 Max-INH” value with A 549 lung cancer cells (A549 cells) is reported as 91%.

Turning to `Cn1ccc(CC(=O)Nc2nnc(CCSCCc3nnc(NC(=O)Cc4ccn(C)c4)s3)s2)c1`, the half-inhibitory concentration (IC50) at GDH is greater than 10000 nM; at KGA (read-out: KGA IC50), 130 nM; with A 549 lung cancer cells (setting [1]) it was 6500 nM. For the same compound, the “A549 Max-INH” value in the series with A 549 lung cancer cells (A549 cells) is 80%.

On to `Nc1nnc(CCSCCc2nnc(NC(=O)Cc3ccccc3)[se]2)[se]1`, for which the figures for the half-maximal inhibitory concentration (IC50) against GDH, against KGA and with A 549 lung cancer cells (setting [1]) were greater than 10000 nM, 1400 nM and 6300 nM, respectively. Also, the “A549 Max-INH” value with A 549 lung cancer cells (A549 cells) stood at 62%.

For `O=C(Cc1ccccc1)Nc1nnc(CCSCCc2nnc(NC(=O)Cc3ccccc3)[se]2)[se]1`, the half-maximal inhibitory concentration (IC50) on GDH was greater than 10000 nM; at KGA (read-out: KGA IC50), 60 nM; in the series with A 549 lung cancer cells (setting [1]), 300 nM. Besides, the “A549 Max-INH” value with A 549 lung cancer cells (A549 cells) stood at 66%.

As for `O=C(Cc1ccccc1)Nc1nnc(CCSCCc2nnc(NC(=O)Cc3ccccc3)s2)s1`, in the series with A 549 lung cancer cells (A549 cells), the “A549 Max-INH” value came to 75%. Further, the concentration for half-maximal inhibition (IC50) in the series on A 549 lung cancer cells (setting [1]) came out at 870 nM.

In the case of `Nc1nnc(CCSCCc2nnc(NC(=O)C34CC5CC(CC(C5)C3)C4)[se]2)[se]1`, the IC50 on GDH was greater than 10000 nM; on KGA it was 4000 nM; in the series with A 549 lung cancer cells (setting [1]), greater than 10000 nM. Also, the “A549 Max-INH” value in the series with A 549 lung cancer cells (A549 cells) is listed as 17%.

For `O=C(Nc1nnc(CCSCCc2nnc(NC(=O)C34CC5CC(CC(C5)C3)C4)[se]2)[se]1)C12CC3CC(CC(C3)C1)C2`, the IC50 at GDH is greater than 10000 nM; at KGA it was 1900 nM; in the series on A 549 lung cancer cells (setting [1]), greater than 10000 nM. Besides, the “A549 Max-INH” value in the series on A 549 lung cancer cells (A549 cells) came out at 17%.

As to `O=C(Cc1cccc(OC(F)(F)F)c1)Nc1ccc(CCCCc2nnc(NC(=O)Cc3ccccn3)[se]2)nn1`, the 50% inhibitory concentration (IC50) is greater than 10000 nM on GDH, 1 nM on KGA (read-out: KGA IC50) and 17 nM with A 549 lung cancer cells (setting [1]). Moreover, in the series with A 549 lung cancer cells (A549 cells), the “A549 Max-INH” value is recorded as 77%.

With `O=C(Cc1cccc(OC(F)(F)F)c1)Nc1ccc(CCCCc2nnc(NC(=O)Cc3ccccn3)s2)nn1`, the IC50 was greater than 10000 nM on GDH and 40 nM in the series with A 549 lung cancer cells (A549, read-out: A549 IC50). The “A549 Max-INH” value in the series on A 549 lung cancer cells (A549 cells) was 70%.

As for `Cn1cc(CC(=O)Nc2nnc(CCCCc3ccc(NC(=O)Cc4cccc(OC(F)(F)F)c4)nn3)[se]2)c2ccccc21`, the values for the IC50 against GDH, at KGA (read-out: KGA IC50) and in the series with A 549 lung cancer cells (setting [1]) were greater than 10000 nM, 1 nM and 17 nM, respectively. In addition, the “A549 Max-INH” value in the series on A 549 lung cancer cells (A549 cells) amounted to 90%.

Regarding `COc1ccc2c(c1)c(CC(=O)Nc1nnc(CCCCc3ccc(NC(=O)Cc4cccc(OC(F)(F)F)c4)nn3)[se]1)cn2C`, the IC50 is greater than 10000 nM on GDH, 5 nM at KGA (read-out: KGA IC50) and 10 nM with A 549 lung cancer cells (setting [1]). Besides, the “A549 Max-INH” value with A 549 lung cancer cells (A549 cells) stood at 90%.
